Assay results published in PubChem BioAssay AID1117323.
Active and inactive are the calls of the source. How the calls were made is not given here.

Tested on: SNU-C1 viability, CellTiter-Glo ATP luminescence
Experiment: SNU-C1 cell viability reduction, dose response, CellTiter-Glo luminescence (AID 1117323)

Q: `OCCN1CCN(CC/C=C2/c3ccccc3Sc3ccc(C(F)(F)F)cc32)CC1` was tested. Which IC50 did it give?
A: The IC50 was 1030 nM.

Q: How did the IC50 turn out when `O=C(O)C1(C(=O)O)CCC1.[NH2-].[NH2-].[Pt+2]` was run?
A: Its IC50 is > 20000 nM (inactive).

Q: How did the IC50 turn out when `CC[C@]1(O)C[C@@H]2CN(CCc3c([nH]c4ccccc34)[C@@](C(=O)OC)(c3cc4c(cc3OC)N(C)[C@H]3[C@@](O)(C(=O)OC)[C@H](OC(C)=O)[C@]5(CC)C=CCN6CC[C@]43[C@@H]65)C2)C1` was run?
A: Its IC50 is > 20000 nM (inactive).

Q: Which IC50 does the source give for `Cc1ccc([N+](=O)[O-])[c]2c1[O][Hg]2` here?
A: The IC50 was 202 nM.

Q: How did the IC50 turn out when `O=C1[O][Bi][O]c2ccccc21` was run?
A: The IC50 was 15400 nM (inactive).

Q: With `CCCCCCCCCCCCCC[N+](C)(C)C` as the molecule, how does the IC50 read?
A: The IC50 was 5.17 nM.

Q: Which IC50 does the source give for `CC(=O)[O][Hg][c]1ccccc1` here?
A: The IC50 was 192 nM.
